According to patent US20120269730A1, “Intracellular Delivery of Contrast Agents with Functionalized Nanoparticles” (Northwestern University, priority 2009, published 2012):
Values joined by “and” are separate entries in the source; they are usually repeats but may differ in a detail not shown here. Equal entries are not always repeated. Where two headings read alike, the source gives them in different places.

Key:
[1] = test system: NIH/3T3 cells; assay: 14.1T T1-weighted MR imaging and T1 analysis of labeled cell pellets; type: cell-based; details: 24 hours, about 10^6 cells
Protocol: (§1) 14.1T MR imaging and T1 measurements were performed on a General Electric/Bruker Omega 600WB 14.1T imaging spectrometer fitted with accustar shielded gradient coils at 25° C. For solution phantoms, 50 […], of 60, 40 and 20 μM Gd(III) (DOTA-Gd(III) and Gd(III)-AuNP) in complete cell media were added to flame-sealed 5¾″ Pasteur pipettes and centrifuged at 4.0° C. and 100×g for 5.0 minutes. Capillaries were then placed in a custom-made glass capillary holder and imaged in a 20 mm birdcage coil. For cell phantoms, approximately 1.5×10^6 NIH/3T3 cells were incubated with 20 or 5.0 μM ([Gd(III)]) Gd(III)-AuNP or DOTA-Gd(III) for 24 hours, rinsed two times with DPBS, and harvested with trypsin. After addition of complete media (1.0 mL total volume) cells were added to flame-sealed 5¾″ Pasteur pipettes and centrifuged at 4.0° C. and 100×g for 5.0 minutes. Capillaries were then placed in a custom-made glass capillary holder and imaged in a 10 mm birdcage coil. Spin lattice relaxation times (T1) were measured using a saturation recovery pulse sequence with static TE (10.18 ms) and variable TR (350, 500, 750, 1000, 1500, 2500, 4000, 7500, 15000 ms) values. […]

[2] = T1-weighted MR imaging and T1 analysis of solution phantoms (3T and 14.1T); type: physicochemical
Protocol: as §1

[3] = data taken from Merbach et al., 37° C., cited from earlier work
[4] = test system: NIH/3T3 and HeLa cells; assay: Cell counting and percent cell viability (Guava ViaCount flow cytometry); type: cell-based; details: any of the conditions tested
Protocol: Cell Counting and Percent Cell Viability Determination Using a Guava EasyCyte Mini Personal Cell Analyzer (PCA) Flow Cytometry System. Cells were counted and percent cell viability determined via a Guava EasyCyte mini personal cell analyzer (Guava Technologies, Hayward, Calif., USA). Specifically, after cell harvesting an aliquot (10 or 20 μL) of the cell suspensions were mixed with Guava ViaCount reagent (final sample volume of 200 μL) and allowed to stain at room temperature for at least 5 minutes (no longer than 20 minutes). Stained samples were then vortexed for 5 seconds, after which cells were counted and percent cell viability determined via manual analysis using the ViaCount software module. For each sample, 1000 events were acquired with dilution factors that were determined based upon optimum machine performance (approximately 50-200 cells/μL).
To determine the efficacy of cellular uptake, NIH/3T3 and HeLa cells were labeled with increasing concentrations of DNA-Gd(III)-AuNPs or DOTA-Gd(III) for different amounts of time. Following agent incubation, cells were rinsed with DPBS, counted and then percent viability was assessed via flow cytometry. Gd(III) and Au content were determined via ICP-MS of acid digested samples. […] At all concentrations the Gd(III) uptake was >50-fold higher for DNA-Gd(III)-AuNPs than DOTA-Gd(III). […]

Structure (SMILES): O=C([O-])CN1CCN(CC(=O)[O-])CCN(CC(=O)O)CCN(CC(=O)[O-])CC1.[Gd+3] [DOTA-Gd(III)]
- T1 reduction of labeled cell pellets ([1]; 5.0 μM Gd(III) incubation): no significant difference from control cell pellets
- T1 reduction of labeled cell pellets ([1]; 20 μM Gd(III) incubation): no significant difference from control cell pellets
- reduction in T1, solution phantoms ([2]; 14.1T, 25° C., 60 μM Gd(III), complete cell media): 31%
- r1 600 MHz (14.1T) ([2]; per Gd(III) (ionic), image-based, cell media at 25° C.): 2.1 mM⁻¹ s⁻¹ and 2.2 mM⁻¹ s⁻¹
- r1 60 MHz (1.41T) [3]: 3.2^c mM^−1s^−1
- r1 60 MHz (1.41T) ([3]; listed as unconjugated Gd(III) complex): 3.2 mM⁻¹ s⁻¹
- cell toxicity or cell number variation [4]: no evidence of cell toxicity or cell number variation
